Data published in patent EP0652009A1, “Identification and use of protease inhibitors” (ELI LILLY AND COMPANY, priority 1993, dated 1995).
Where two headings read alike, the source gives them in different places. Non-standard residues stand in square brackets, D forms with d. Residues, ends and D or L forms follow the SMILES beside them. Sta = CC(C)C[C@H](N)[C@@H](O)CC(=O)O; N(iPr)Gly = CC(C)NCC(=O)O

Columns and labels:
Human liver cathepsin D [1] = target: T1, Human liver cathepsin D (Homo sapiens, UniProt P07339); assay: Assay 2: cathepsin D inhibition activity (non-cellular fluorometric assay); format: biochemical; set-up: Human liver cathepsin D (Athens Research and Technology, Athens, GA); purchased Athens Research and Technology, Athens, GA
Description: (§1) A second non-cellular assay for determining in vitro aspartyl protease inhibitory activity utilizes a microtiter plate, where a suitable aspartyl protease, such as cathepsin D is added to each well together with controls. A suitable fluorometric substrate is added to each well. The resultant reaction mixture is allowed to react for a preselected time, e.g., 30 minutes. After enzyme activity is terminated, the substrate or its product may be determined fluorometrically and then the protease inhibition activity may be calculated based on the rates of substrate turnover. This assay is exemplified in Assay 2, below.
(§2) A fluorometric assay was adapted from the method disclosed by Murakami et al., (1981) Anal. Biochem. 110:232-239 for measuring renin activity. Human liver cathepsin D (Athens Research and Technology, Athens, GA) was diluted in assay buffer, 200mM NaOAc, pH 4.5, 150mM NaCl to 500 ng/mL and then 100 µL of this cathepsin D solution was added to each well of a 96 well plate with the exception of control wells which received just 100 µL of assay buffer. Compound stocks were prepared by dissolving an aspartyl protease inhibitor in DMSO for each concentration tested in the assay and then 5 µL of compound stock was added to each of the wells prepared above. Blank and enzyme control wells each received 5 µL of the DMSO vehicle.
(§3) Following a ten minute incubation at 25°C to allow enzyme/compound interaction, 5 µL of 500µM fluorometric substrate (Suc-Arg-Pro-Phe-His-Leu-Leu-Val-Try-AMC [SEQ ID NO:4], Bachem Biosciences, Philadelphia, PA) in DMSO was added per well to initiate the reaction. After incubation at 37°C for 30 minutes, cathepsin D activity was terminated by the addition of 100 µL per well of 400 mU/mL microsomal leucine aminopeptidase (EC 3.4.11.2, Sigma, St. Louis, MO) in 1M Tris-HCl, pH 8.0.
(§4) The plates were then analyzed in a fluorometer (CytoFluor 2350, Millipore, Bedford, MA) with an excitation wavelength of 360nm and an emission wavelength of 460nm, in order to check for background fluorescence due to test compounds. Following a two hour incubation at 37°C, to allow the aminopeptidase to release the fluorophore, 7-amido-4-methylcoumarin (AMC) from the products of cathepsin D cleavage, the plates were again analyzed in the fluorometer. In order to check for potential false positives, i.e., inhibitors of microsomal leucine aminopeptidase, residual aminopeptidase activity was monitored directly in each well by the addition of 20 µL/well of 2.5mM Leu-pNA (Bachem Biosciences, Philadelphia, PA) in 10% DMSO. Aminopeptidase activity was measured as an increase in the absorbance at 405nm in a UVmax microplate reader (Molecular Devices, Menlo Park, CA).
(§5) The compounds prepared in Examples 9, 12, 13, 20-23, 23A, 24, 30, 41-43, 45, and 48 were assayed at 10 µg/mL for cathepsin D inhibition activity using Assay 2. Cathepsin D activity was linear under these conditions and the results are expressed as percent inhibition of the control activity in Assay Table 2, below. All results presented are the mean and standard deviation of at least four replicate assays. Assay Table 2
Target sequence in this assay (P07339 169-412 limits assumed): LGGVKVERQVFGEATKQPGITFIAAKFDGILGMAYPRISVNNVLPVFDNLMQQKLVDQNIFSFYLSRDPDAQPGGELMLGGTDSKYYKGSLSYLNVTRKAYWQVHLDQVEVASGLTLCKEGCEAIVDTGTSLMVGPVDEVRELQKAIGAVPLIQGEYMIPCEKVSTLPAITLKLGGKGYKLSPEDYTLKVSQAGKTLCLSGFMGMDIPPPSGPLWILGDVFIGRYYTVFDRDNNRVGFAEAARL
Target sequence in this assay (P07339 65-162 limits assumed): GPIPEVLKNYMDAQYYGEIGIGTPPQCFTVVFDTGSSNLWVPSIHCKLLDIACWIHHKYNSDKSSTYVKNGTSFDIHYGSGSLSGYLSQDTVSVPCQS

βAP production = assay: Assay 4: βAP production inhibition (cellular assay, ELISA of conditioned media, normalised to MTT); format: cell-based, human; Chinese hamster; conditions: compound at 10 µg/mL; 293 751 SWE and CHO 751 SWE cells (table does not say which); βAP ELISA divided by MTT result, relative to drug-free control; mean and standard deviation of at least six replicate assays
Text: The test system used to measure the βAP production inhibition activity is typically a cellular assay or an animal model. Preferably, the βAP production inhibition activity is obtained by direct measurement of βAP production in a cellular assay, as described in WO9410569, the full disclosure of which is incorporated herein by reference. This assay is exemplified in Assay 4, below.
Two cell lines (human kidney cell line 293 and Chinese hamster ovary cell line CHO) were stably transfected with the gene for APP-751 containing the double mutation Lys₆₅₁-Met₆₅₂ to Asn₆₅₁-Leu₆₅₂ (APP-751 numbering) commonly called the Swedish mutation using the method described in Citron et al., (1992) Nature 360:672-674. The transfected cell lines were designated as 293 751 SWE and CHO 751 SWE, and were plated in Corning 96 well plates at 2.5x10⁴ or 1x10⁴ cells per well respectively in Dulbecco's minimal essential media plus 10% fetal bovine serum. Following overnight incubation at 37°C in an incubator equilibrated with 10% carbon dioxide (CO₂), the media were removed and replaced with 200 µL per well of media containing an aspartyl protease inhibitor. After a two hour pretreatment period, the media were again removed and replaced with fresh media containing the aspartyl protease inhibitor and the cells were incubated for an additional two hours.
After treatment, plates were centrifuged in a Beckman GPR at 1200 rpm for five minutes at room temperature to pellet cellular debris from the conditioned media. From each well, 100µL of conditioned media were transferred into an ELISA plate precoated with antibody 266 against βAP-13-28 (Seubert et al., supra.) and stored at 4°C overnight. An ELISA assay employing labelled antibody 6C6 (against βAP-1-16) was run the next day to measure the amount of βAP produced.
Cytotoxic effects of the compounds were measured by a modification of the method of Hansen et al., (1989) J. Immun. Meth. 119:203-210. To the cells remaining in the tissue culture plate, was added 25 µL of a 3,(4,5-dimethylthiazol-2-yl)2,5-diphenyltetrazolium bromide (MTT) stock solution (5 mg/mL) to a final concentration of 1 mg/mL. Cells were incubated at 37°C for one hour, and cellular activity was stopped by the addition of an equal volume of MTT lysis buffer (20% w/v sodium dodecylsulfate in 50% DMF, pH 4.7). Complete extraction was achieved by overnight shaking at room temperature. The difference in the OD562nm and the OD650nm was measured in a Molecular Devices UVmax microplate reader as an indicator of the cellular viability.
The results of the βAP ELISA were fit to a standard curve and expressed as ng/mL βAP peptide. In order to normalize for cytotoxicity, these βAP results were divided by the MTT results and expressed as a percentage of the results from a drug-free control.
The compounds prepared above in Examples 9, 12, 13, 20-23, 23A, 24, 30, 41-43, 45, and 48 were assayed for βAP production inhibition activity in cells at 10 µg/mL using Assay 4. The results presented in Assay Table 4, below, are the mean and standard deviation of at least six replicate assays. Assay Table 4

Human liver cathepsin D [2] = target: T1, Human liver cathepsin D; assay: Assay 2: cathepsin D inhibition activity (non-cellular fluorometric assay); format: biochemical; set-up: Human liver cathepsin D (Athens Research and Technology, Athens, GA); purchased Athens Research and Technology, Athens, GA; host or cells: human liver (by the product's printed name)
Description: as §1, §2, §3, §4, §5
Target sequence in this assay (P07339 65-412): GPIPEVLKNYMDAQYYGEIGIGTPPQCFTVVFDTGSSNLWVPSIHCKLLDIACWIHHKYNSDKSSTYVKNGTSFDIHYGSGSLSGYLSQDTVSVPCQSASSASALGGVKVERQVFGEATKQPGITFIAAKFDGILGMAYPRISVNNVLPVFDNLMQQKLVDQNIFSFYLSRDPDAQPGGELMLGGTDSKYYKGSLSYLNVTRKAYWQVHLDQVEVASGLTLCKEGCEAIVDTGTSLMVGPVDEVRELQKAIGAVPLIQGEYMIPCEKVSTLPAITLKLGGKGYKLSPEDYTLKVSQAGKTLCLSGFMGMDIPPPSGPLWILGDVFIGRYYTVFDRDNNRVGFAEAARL

[3] = compound at 10 µg/mL, percent inhibition of control activity, mean and standard deviation of at least four replicate assays

Compound | inhibition at 10 µg/mL (Human liver cathepsin D [2]) [%] | βAP Production Inhibition (βAP production) [%] | also measured
Cc1ccc(C(=O)C2NCCc3ccccc32)cc1C(=O)N[C@@H](Cc1ccccc1)[C@H](O)CN1C[C@H]2CCCC[C@H]2C[C@H]1C(=O)NC(C)(C)C (relative stereo) [Example 30, [3S-(3R*,4aR*,8aR*,2'S*,3'R*)]-2-[2'-Hydroxy-3'-phenylmethyl-4'-aza-5'-oxo-5'-(3''-[1''',2''',3''',4'''-tetrahydroisoquinolin-1'''-ylcarbonyl]-6''-methyl)phenyl]pentyl-decahydroisoquinoline-3-N-t-butylcarboxamide] | – | 69.2 ± 2.2 | Cathepsin D Inhibition (Human liver cathepsin D [1]; [3]): 69.2 ± 3.5%
Cc1cccc2ccc(C(=O)N[C@@H](CC(N)=O)C(=O)N[C@@H](Cc3ccccc3)[C@H](O)Cc3ccccc3C(=O)NC(C)(C)C)nc12 [Example 9, [1S-(1R*,4R*,5S*)]-N-(1-(2-Amino-2-oxoethyl)-2-oxo-3-aza-4-phenylmethyl-5-hydroxy-6-(2-(1-t-butylamino-1-oxomethyl)phenyl)hexyl)-8-methylquinolin-2-yl carboxamide] | – | – | inhibition at 10 µg/mL (Human liver cathepsin D [1]): 44.4 ± 1.9%; inhibition at 10 µg/mL (βAP production): 44.4 ± 7.7%
CC(C)C(NC(=O)C(Cc1cccc2ccccc12)NC(=O)OC(C)(C)C)C(=O)NC(Cc1ccccc1)C(O)Cc1ccccc1C(=O)NC(C)(C)C (stereo not drawn) [Example 23, [2R-(2R*,3S*,6S*,9S*)]-N-t-Butyl-2-[2-hydroxy-3-phenylmethyl-4,7-diaza-5,8-dioxo-6-(1-methylethyl)-9-N(t-butoxycarbonyl)amino-10-naphth-1-yl]decyl benzamide] | – | – | inhibition at 10 µg/mL (Human liver cathepsin D [1]; [3]): 96.3 ± 0.9%; inhibition at 10 µg/mL (βAP production): 96.3 ± 2.8%
CC(C)C(NC(=O)C(Cc1cccc2ccccc12)NC(=O)OC(C)(C)C)C(=O)NC(Cc1ccccc1)C(O)Cc1ccccc1C(=O)NC(C)(C)C (stereo not drawn) [Example 24, [2R-(2R*,3S*,6S*,9R*)]-N-t-Butyl-2-[2-hydroxy-3-phenylmethyl-4,7-diaza-5,8-dioxo-6-(1-methylethyl)-9-N(t-butoxycarbonyl)amino-10-naphth-1-yl]decyl benzamide] | – | 92.7 ± 1.4 | Cathepsin D Inhibition (Human liver cathepsin D [1]; [3]): 92.7 ± 0.5%
CC[C@H](C)[C@H](NC(=O)C[C@H](O)[C@H](CC(C)C)NC(=O)[C@@H](NC(=O)CNC(C)C)C(C)C)C(=O)N[C@@H](C)C(=O)N[C@H](C(=O)O)[C@@H](C)O [Example 48, (CH3)2CH-Gly-Val-Sta-Ile-Ala-Thr-OH] (H-[N(iPr)Gly]V[Sta]IAT-OH) | 79.9 ± 2.7 | 1.6 ± 19.8 | –

The next lines start with results.

inhibition at 10 µg/mL (Human liver cathepsin D [2]) [%] | Compound | βAP Production Inhibition (βAP production) [%] | also measured
98.3 ± 0.1 | CC(=O)NCC(=O)N[C@H](C(=O)N[C@H](C(=O)N[C@@H](CC(C)C)[C@@H](O)CC(=O)N[C@@H](C)C(=O)N[C@H](C(=O)O)[C@@H](C)O)C(C)C)C(C)C [Example 41, CH3C(O)-Gly-Val-Val-Sta-Ala-Thr-OH] (Ac-GVV[Sta]AT-OH) | -6.2 ± 6.2 | –
89.5 ± 1.3 | CC(C)C[C@H](NC(=O)[C@@H](NC(=O)[C@@H](NC(=O)CNC(C)C)C(C)C)C(C)C)[C@@H](O)CC(=O)N[C@@H](C)C(=O)N[C@H](C(=O)O)[C@@H](C)O [Example 42, (CH3)2CH-Gly-Val-Val-Sta-Ala-Thr-OH] (H-[N(iPr)Gly]VV[Sta]AT-OH) | 13.1 ± 7.5 | –
87.9 ± 2.4 | CC(C)C[C@H](NC(=O)[C@@H](NC(=O)[C@@H](NC(=O)CN)C(C)C)C(C)C)[C@@H](O)CC(=O)N[C@@H](C)C(=O)N[C@H](C(=O)O)[C@@H](C)O [Example 43, Gly-Val-Val-Sta-Ala-Thr-OH] (H-GVV[Sta]AT-OH) | 16.2 ± 8.5 | –
30.6 ± 4.8 | CC(C)C[C@H](NC(=O)[C@@H](NC(=O)CN)C(C)C)[C@@H](O)CC(=O)N[C@@H](C)C(=O)N[C@H](C(=O)O)[C@@H](C)O [Example 45, Gly-Val-Sta-Ala-Thr-OH] (H-GV[Sta]AT-OH) | 3.3 ± 1.1 | –
